Data on four molecules can be found in ChEMBL document CHEMBL5465560, “Selectivity Literature for EUbOPEN Chemogenomic Library” (2024).

Changes are numbered by the printed parent chain.

For assay [1], the target named is T1, Dual specificity mitogen-activated protein kinase kinase 4 (Homo sapiens) (UniProt P45985).
T1 sequence (whole entry): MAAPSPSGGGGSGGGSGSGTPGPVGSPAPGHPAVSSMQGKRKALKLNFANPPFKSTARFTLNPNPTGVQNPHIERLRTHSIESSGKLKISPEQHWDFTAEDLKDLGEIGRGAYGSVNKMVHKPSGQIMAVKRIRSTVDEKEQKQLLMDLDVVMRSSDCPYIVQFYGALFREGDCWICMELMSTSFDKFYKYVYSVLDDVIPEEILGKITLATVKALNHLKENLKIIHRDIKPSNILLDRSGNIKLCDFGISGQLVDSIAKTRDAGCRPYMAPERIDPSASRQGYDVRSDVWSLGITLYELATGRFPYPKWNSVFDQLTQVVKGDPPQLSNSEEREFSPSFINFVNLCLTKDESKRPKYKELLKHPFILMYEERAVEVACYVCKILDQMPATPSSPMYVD
Briefly: Selectivity interaction (KinomeScan (DiscoverX)) EUB0000666a MAP2K4. The settings on record: at 10 µM.

Assay [2] deals with T2, Receptor-type tyrosine-protein kinase FLT3 (Homo sapiens), P36888 [D835Y].
T2 sequence (whole entry): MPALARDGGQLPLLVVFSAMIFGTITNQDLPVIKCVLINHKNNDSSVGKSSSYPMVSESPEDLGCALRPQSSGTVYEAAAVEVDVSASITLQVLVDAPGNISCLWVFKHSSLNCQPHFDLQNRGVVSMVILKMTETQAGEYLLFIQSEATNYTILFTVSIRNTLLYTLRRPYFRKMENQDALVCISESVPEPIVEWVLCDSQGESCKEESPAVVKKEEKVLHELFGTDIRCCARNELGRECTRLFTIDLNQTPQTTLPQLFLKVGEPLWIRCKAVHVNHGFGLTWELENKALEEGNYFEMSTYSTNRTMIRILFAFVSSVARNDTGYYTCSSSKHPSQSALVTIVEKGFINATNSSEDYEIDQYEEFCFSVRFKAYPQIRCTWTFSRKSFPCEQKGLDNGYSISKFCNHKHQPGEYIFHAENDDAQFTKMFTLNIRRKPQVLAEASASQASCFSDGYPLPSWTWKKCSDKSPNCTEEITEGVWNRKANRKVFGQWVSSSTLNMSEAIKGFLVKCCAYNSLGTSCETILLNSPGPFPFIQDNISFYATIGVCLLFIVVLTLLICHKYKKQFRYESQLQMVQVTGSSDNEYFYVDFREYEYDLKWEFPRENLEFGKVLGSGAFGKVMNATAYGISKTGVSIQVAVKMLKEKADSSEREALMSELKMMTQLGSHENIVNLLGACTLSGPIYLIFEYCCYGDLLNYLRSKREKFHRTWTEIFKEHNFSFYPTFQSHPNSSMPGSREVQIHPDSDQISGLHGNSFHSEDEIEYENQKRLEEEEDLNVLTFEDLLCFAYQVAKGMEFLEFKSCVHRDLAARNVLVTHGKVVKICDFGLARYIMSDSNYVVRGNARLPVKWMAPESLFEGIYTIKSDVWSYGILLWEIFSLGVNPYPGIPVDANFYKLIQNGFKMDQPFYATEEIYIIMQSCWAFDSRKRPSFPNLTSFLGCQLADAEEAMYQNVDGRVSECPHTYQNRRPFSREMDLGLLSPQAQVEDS
Put plainly: (§1) Selectivity interaction (KinomeScan (DiscoverX)) EUB0000607a FLT3. The settings on record: at 10 µM.

Assay [3] relates to T3, Receptor-type tyrosine-protein kinase FLT3 (Homo sapiens), P36888 [R834Q].
T3 sequence (whole entry): T2 sequence (whole entry) with R834Q, Y835D
The assay is described as §1. The settings on record: at 10 µM.

Assay [4] deals with Receptor-type tyrosine-protein kinase FLT3 (Homo sapiens) (UniProt P36888). The description is as §1. The settings on record: at 10 µM.
Assay [5] has as its system Receptor-type tyrosine-protein kinase FLT3 (Homo sapiens), P36888 [UNDEFINED MUTATION]. Described as §1. The settings on record: at 10 µM.
Assay [6] addresses Serine/threonine-protein kinase Chk2 (Homo sapiens) (UniProt O96017). Put plainly: Selectivity interaction (ActivX KiNativ screen (ex vivo kinase selectivity in human PBMCs)) EUB0001619a CHEK2. It is filed as cell-based. The settings on record: PBMC, at 1 µM.
In assay [7] the target is T4, Myosin light chain kinase family member 4 (Homo sapiens) (UniProt Q86YV6).
T4 sequence (whole entry): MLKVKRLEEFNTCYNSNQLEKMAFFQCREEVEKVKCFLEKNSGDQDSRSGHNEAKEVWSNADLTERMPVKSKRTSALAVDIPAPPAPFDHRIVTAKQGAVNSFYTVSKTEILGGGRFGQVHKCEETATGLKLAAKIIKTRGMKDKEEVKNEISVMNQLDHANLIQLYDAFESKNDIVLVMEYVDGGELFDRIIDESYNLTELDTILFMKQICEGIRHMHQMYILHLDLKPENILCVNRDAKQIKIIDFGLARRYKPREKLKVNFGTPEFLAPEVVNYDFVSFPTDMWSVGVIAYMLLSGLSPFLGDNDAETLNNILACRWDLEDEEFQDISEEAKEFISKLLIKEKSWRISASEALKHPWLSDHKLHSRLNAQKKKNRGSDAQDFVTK
Briefly: Selectivity interaction (KinomeScan (DiscoverX)) EUB0000618a MYLK4. The settings on record: at 10 µM.

Serine/threonine-protein kinase Chk2 (Homo sapiens), sequence (O96017 whole entry): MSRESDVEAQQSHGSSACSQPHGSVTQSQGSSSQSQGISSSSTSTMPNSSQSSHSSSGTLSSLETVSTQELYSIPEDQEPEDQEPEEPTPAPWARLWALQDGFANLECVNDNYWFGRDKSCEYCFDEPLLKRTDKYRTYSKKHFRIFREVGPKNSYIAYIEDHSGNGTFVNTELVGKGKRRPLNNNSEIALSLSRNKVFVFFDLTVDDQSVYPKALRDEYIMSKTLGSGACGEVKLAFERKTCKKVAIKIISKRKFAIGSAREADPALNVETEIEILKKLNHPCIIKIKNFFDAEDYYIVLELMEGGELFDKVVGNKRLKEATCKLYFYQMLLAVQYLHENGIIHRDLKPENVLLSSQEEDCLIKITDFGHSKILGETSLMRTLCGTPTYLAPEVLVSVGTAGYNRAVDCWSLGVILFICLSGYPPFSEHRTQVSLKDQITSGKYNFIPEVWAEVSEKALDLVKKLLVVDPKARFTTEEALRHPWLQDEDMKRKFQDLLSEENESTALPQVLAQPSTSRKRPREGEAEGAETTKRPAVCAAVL

For `O=C(NOC[C@H](O)CO)c1ccc(F)c(F)c1Nc1ccc(I)cc1F`, the % of control in assay [1] came to 83%.
`CNC(=O)Nc1ccc(-c2nc(N3CC4CCC(C3)O4)c3cnn(C4CCC5(CC4)OCCO5)c3n2)cc1`: the % of control amounted to 99% in assay [2], 79% in assay [3], 75% in assay [4] and 100% in assay [5].
Regarding `N#Cc1cccc(-c2c[nH]c3ncnc(N4CCOCC4)c23)c1`, in assay [6], the % of inhibition turned out to be 2%.
Regarding `O[C@H]1CC[C@H](Nc2ncc3nc(Nc4c(F)cc(F)cc4F)n([C@H]4CCOC4)c3n2)CC1`, the % of control in assay [7] worked out at 100%.
